# From article PMC12232376, “A Lysozyme-Derived Peptide Induces GLP‑1 Secretion in Mouse Jejunal Organoids and Modulates Glycemia in Rats” (Journal of Agricultural and Food Chemistry, 2025)
# Where no end group is shown, it is not given here.
# Assays:
# PYY gene expression [1] = experiment: Relative PYY gene expression in organoids (qPCR); assay type: cell-based, mouse; conditions: organoids, 10, 30, 60 min; EWD 2 mg/mL, Phe 20 mM, peptide 1 mM
# Experimental: (§1) For RNA isolation, frozen STC-1 cells or organoids were homogenized in QIAzol, and total RNA was isolated using the miRNeasy Mini Kit (Qiagen, Hilden, Germany). Total RNA was quantified in a NanoDrop 2000 spectrophotometer (Thermo Scientific, MA, USA). According to the instructions, total RNA was reverse transcribed to cDNA using a Script II RT Kit (Qiagen, Hilden, Germany). RNA expression levels were determined in duplicate by quantitative real-time PCR (qPCR) on a 7900HT Real-Time PCR System (Applied Biosystems), using miScript SYBR Green PCR Kits (Qiagen, Hilden, Germany).
# (§2) Amplification was initiated at 50 °C for 2 min and at 95 °C for 10 min, followed by 40 cycles of 95 °C for 15 s and 60 °C for 1 min. The following specific oligonucleotides were used: for cholecystokinin (CCK) forward (F) 5′-[…]-3′ and reverse (R) 5′-[…]-3′; for GLP-1 (F) 5′-[…]-3′ and (R) 5′-[…]-3′; for peptide YY (PYY) (F) 5′-[…]-3′ and (R) 5′-[…]-3′; and for reference gene β-actin (F) 5′-[…]-3′ and (R) 5′-[…]-3′. The relative expression levels of the target gene were calculated using the comparative critical threshold method (2^–ΔΔCt), by normalizing the data to the expression of β-actin.
# mouse jejunal organoids = experiment: GLP-1 secretion in mouse jejunal organoids (GLP-1 Active ELISA of supernatants); assay type: cell-based; conditions: Phe 20 mM, peptide 1 mM, n = 3
# Experimental: Mouse intestinal organoids (enteroids) were derived from adult intestinal stem cells (ISCs). Intestinal crypts were isolated from the jejunum of male and female wild-type mice following the protocol provided by STEMCELL Technologies. Crypts were cultured at 37 °C until organoids were fully developed (5–7 days). Intestinal organoids were suspended in 10 mL of cold DMEM/F12 (Lonza, Basel, Switzerland), and the crypts were suspended in a mixture (50:50) of Matrigel (Corning, NY, USA) and complete IntestiCult Organoid Growth Medium (STEMCELL Technologies, Vancouver, Canada). This mix was gently placed in the center of each well of a prewarmed 24-well plate until the Matrigel solidified and formed a dome. IntestiCult Organoid Growth Medium (STEMCELL Technologies, Vancouver, Canada) was added, and crypts were cultured at 37 °C and 5% CO2 until organoids were developed. After 7 days, the mouse intestinal organoids were passed following the STEMCELL Technologies protocol. The experiments were performed from passage numbers 1 to 6.
# (§3) After hormonal secretion studies, GLP-1_7–36NH2 was measured in the supernatants of cells or organoids in duplicate with the commercial immunoassay Glucagon-Like Peptide-1 Active ELISA (Merck KGaA, Darmstadt, Germany), according to the manufacturer’s instructions.
# CCK gene expression [2] = experiment: Relative CCK gene expression in organoids (qPCR); assay type: cell-based, mouse; conditions: peptide 1 mM (induced at 60 min), Phe 20 mM (induced from 30 min), versus control
# Experimental: as §1, §2
# p-IRS = experiment: Immunoblotting p-IRS/IRS in STC-1 cells; assay type: cell-based; conditions: peptide 1 mM, EWD 2 mg/mL, Phe 20 mM, 5, 15, 30, 60 min, immunoblot
# Experimental: […]; then, cells were lysed with RIPA buffer, and ERK1/2, p-ERK1/2, AMPK, p-AMPK, p-IRS-1, IRS-1, glyceraldehyde-3-phosphate dehydrogenase (GAPDH), and heat shock protein (HSP90) contents were examined using immunoblotting. Protein samples were lysed, separated on 10% SDS-polyacrylamide gels, and the separated proteins were electroblotted from the gel onto nitrocellulose membranes ([…], Millipore, MA, USA) and blocked with skim milk for 30 min at room temperature. Membranes were incubated with primary antibodies overnight at 4 °C. After incubation, membranes were exposed to secondary antibodies for 45 min at room temperature. Blots were rinsed three times with Tris-buffered saline with Tween 20, pH 8.0, after each incubation step and visualized using an Odyssey infrared imaging system (LI-COR, Lincoln, NE, USA).
# [3] = test system: proglucagon gene expression; experiment: Relative proglucagon gene expression in organoids (qPCR); assay type: cell-based, mouse; conditions: 10 min, Phe 20 mM, 2^-ΔΔCt normalised to β-actin, versus control
# Experimental: as §1, §2
# CCK gene expression [4] = experiment: Relative CCK gene expression in STC-1 cells (qPCR); assay type: cell-based; conditions: 60 min, Phe 20 mM
# Experimental: (§4) Cells were cultured at 37 °C, 5% CO2, and a humidified atmosphere for 48 h into 24-well plates at a density of 3 × 10^5 cells per well.
# as §1, §2
# STC-1 cells [5] = experiment: GLP-1 secretion in STC-1 cells (GLP-1 Active ELISA of supernatants); assay type: cell-based; conditions: Phe 20 mM, peptide 1 mM, n = 3
# Experimental: STC-1 cells supplied by ATCC (ATCC CRL-3254, Manassas, VA, USA) were cultured in Dulbecco’s Modified Eagle’s Medium (ATCC, Manassas, VA, USA) supplemented with 100 U/mL penicillin, 100 mg/L streptomycin, 0.25 μg/mL amphotericin (Lonza Group, Basel, Switzerland), and 10% fetal bovine serum (ATCC, Manassas, VA, USA). Cells were incubated at 37 °C in a 5% CO2 humidified atmosphere, and once they reached 80% confluence, they were trypsinized and seeded according to each cell study. The experiments were performed from passage numbers 31–35.
# as §4, §3
# PYY gene expression [6] = experiment: Relative PYY gene expression in STC-1 cells (qPCR); assay type: cell-based; conditions: 60 min, Phe 20 mM
# Experimental: as §4, §1, §2
# STC-1 cells [7] = conditions: earlier screening in STC-1; ref authors' previous study (number not given); cited from earlier work
# Experimental: Later, other authors, using the enteroendocrine cell line STC-1, have related the GLP-1-inducing effect to peptides of molecular mass between […], and it was shown that peptides present a greater induc ... || There is little information about the structural features necessary to induce secretion by enteroendocrine cells of GLP-1. The organoid cellular media collected at 60 min were analyzed by HPLC–MS/MS in order to assess the possible proteolysis of the assayed peptides during the incubation. The small intestine brush border has different enzymes, oligopeptidases, lipases, and carbohydrases that contribute to nutrient hydrolysis and absorption. Other authors have described that enterocytes present in mouse intestinal organoids have mature brush borders, with the presence of their typical enzymes, ...
# [8] = test system: mouse intestinal organoids
# Experimental: On the day of the experiment, the medium was discarded, and the Matrigel was removed with cold PBS. Next, the organoids were centrifuged for 3 min at 300 × g, the medium was discarded, and after three washes, the organoids were resuspended in saline buffer (20 mM HEPES 1 M, 1 mM glucose, 140 mM NaCl, 4.5 mM KCl, 1.2 mM CaCl2, 1.2 mM MgCl2, 0.1% BSA, pH 7.4). The organoids were incubated for 40 min at 37 °C in this buffer. These organoids were resuspended in a new saline buffer and transferred to 96-well plates at a 60 organoids per well-ratio. The samples (EWD at 2 mg/mL, Phe at 20 mM, and synthetic peptide at 1 mM) were diluted in saline buffer, added to the well, and assayed in triplicate. […] After 10, 30, and 60 min, the plate was centrifuged for 3 min at 300 × g, supernatants were collected, organoids were lysed with QIAzol (Qiagen, Hilden, Germany), and samples were stored at −80 °C for further analysis.
# The percentage of each sequence was calculated relative to the total area in each sample.
compound,measurement,setting,value
"N[C@@H](Cc1ccccc1)C(=O)O [Phe, Phenylalanine]","PYY gene expression versus control, in words",PYY gene expression [1],"an effect of both the peptide and Phe was observed at 10 min, with Phe keeping the increased expression at 30 min"
same,"GLP-1 release in organoids versus control, in words","mouse jejunal organoids; 10, 30 and 60 min, EWD 2 mg/mL",faster GLP-1 induction was observed in the case of Phe (10 min)
same,GLP-1 release in organoids,"mouse jejunal organoids; 60 min, 60 organoids per well in saline buffer pH 7.4, 37 °C, ELISA, mean ± SEM",43.7 ± 1 pM
same,"CCK gene expression, maximum fold change",CCK gene expression [2],2.8 fold change
same,"p-IRS expression versus control, in words",p-IRS,p-IRS overexpression at all time points
same,Relative proglucagon gene expression,[3],1.8 fold change
same,CCK gene overexpression,CCK gene expression [4],4 fold
same,"GLP-1 release in STC-1 cells versus control, in words","STC-1 cells [5]; 10, 30 and 60 min, EWD 2 mg/mL",only reached significance after incubation with the peptide or Phe for 60 min
same,GLP-1 induced in STC-1 cells,"STC-1 cells [5]; HEPES buffer pH 7.4, time not printed at the place (60 min by b40), ELISA, mean ± SEM",416.6 ± 40.1 pM
same,PYY gene overexpression,PYY gene expression [6],2 fold
"IRGCRL [124IRGCRL129, hexapeptide, shorter form of 123WIRGCRL129 found in organoid supernatants]","GLP-1 secretion in STC-1 cells, in words",STC-1 cells [7],"induce GLP-1 in STC-1, although at lower levels than the tryptophan-containing precursor peptide"
WARGCRL [WARGCRL],"Susceptibility to peptidases in organoids, in words",[8],most susceptible sequences to the action of peptidases
WIRACRL [WIRACRL],"Susceptibility to peptidases in organoids, in words",[8],most susceptible sequences to the action of peptidases
WIRGARL [WIRGARL],"Susceptibility to peptidases in organoids, in words",[8],most susceptible sequences to the action of peptidases
